The text below walks through data of PMC11592078, “Synthesis, Analytical Characterization, and Human CB1 Receptor Binding Studies of the Chloroindole Analogues of the Synthetic Cannabinoid MDMB-CHMICA” (Biomolecules, 2024).

By IC50 is commonly meant the point on the concentration scale where inhibition reaches its midpoint. A low value points to higher potency. Broadly, the Ki is the dissociation constant of the complex between target and ligand, obtained from inhibition or displacement.

The target of test [1] is T1, hCB1 receptor (Homo sapiens, UniProt P21554).
T1 construct: purchased Perkin Elmer; host or cells: HEK293-EBNA
T1 sequence (P21554 whole entry): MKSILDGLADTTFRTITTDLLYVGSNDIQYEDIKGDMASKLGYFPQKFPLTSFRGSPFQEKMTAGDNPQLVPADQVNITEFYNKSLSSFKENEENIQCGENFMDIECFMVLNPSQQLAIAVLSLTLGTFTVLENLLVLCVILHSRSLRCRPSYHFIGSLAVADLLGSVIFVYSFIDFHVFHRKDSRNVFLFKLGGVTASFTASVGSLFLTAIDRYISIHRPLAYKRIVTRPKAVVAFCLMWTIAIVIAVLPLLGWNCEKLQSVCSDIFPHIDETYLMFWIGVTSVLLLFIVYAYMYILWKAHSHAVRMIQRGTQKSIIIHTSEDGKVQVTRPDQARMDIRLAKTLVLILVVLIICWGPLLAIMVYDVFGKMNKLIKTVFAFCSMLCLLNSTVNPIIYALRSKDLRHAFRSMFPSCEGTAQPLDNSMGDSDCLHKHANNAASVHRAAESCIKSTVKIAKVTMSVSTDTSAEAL
Briefly: competitive ligand binding assay with [3H]-CP-55,940 on hCB1 membrane preparations of HEK293-EBNA cells.

Test [2] deals with T1, hCB1 receptor. Details: method as in earlier work. The settings on record: read-out: Ki at hCB1; comparable assay setup; ref 31 (Schoeder et al.); cited from earlier work.

Where two headings read alike, the source gives them in different places.

At hCB1 receptor [1], `COC(=O)[C@@H](NC(=O)c1c(Cl)n(CC2CCCCC2)c2ccccc12)C(C)(C)C` [2-Chloro-MDMB-CHMICA, Methyl (S)-2-(2-chloro-1-(cyclohexylmethyl)-1H-indole-3-carboxamido)-3,3-dimethylbutanoate] gave an IC50 of 23.6 nM and a Ki of 0.58 nM. At hCB1 receptor [1] (comparison of the substitution positions), the “rank of Ki among the chloro analogues” value was “lowest Ki value”.
As to `COC(=O)[C@@H](NC(=O)c1cn(CC2CCCCC2)c2cccc(Cl)c12)C(C)(C)C` [4-Chloro-MDMB-CHMICA, Methyl (S)-2-(4-chloro-1-(cyclohexylmethyl)-1H-indole-3-carboxamido)-3,3-dimethylbutanoate], at hCB1 receptor [1], the IC50 was determined as 268 nM and affinity was put at a Ki of 6.55 nM.
On hCB1 receptor [1], `COC(=O)[C@@H](NC(=O)c1cn(CC2CCCCC2)c2ccc(Cl)cc12)C(C)(C)C` [5-Chloro-MDMB-CHMICA, Methyl (S)-2-(5-chloro-1-(cyclohexylmethyl)-1H-indole3-carboxamido)-3,3-dimethylbutanoate] displayed an IC50 of 402 nM and a Ki of 9.81 nM.
Taken in the same sequence, the figures for `COC(=O)[C@@H](NC(=O)c1cn(CC2CCCCC2)c2cc(Cl)ccc12)C(C)(C)C` [6-Chloro-MDMB-CHMICA, Methyl (S)-2-(6-chloro-1-(cyclohexylmethyl)-1H-indole-3-carboxamido)-3,3-dimethylbutanoate] were 31.6 nM and 0.77 nM.
Consider `COC(=O)[C@@H](NC(=O)c1cn(CC2CCCCC2)c2c(Cl)cccc12)C(C)(C)C` [7-Chloro-MDMB-CHMICA, Methyl (S)-2-(7-chloro-1-(cyclohexylmethyl)-1H-indole-3-carboxamido)-3,3-dimethylbutanoate], for which, at hCB1 receptor [1], the IC50 worked out at 28.8 nM and the inhibition constant Ki is 0.7 nM.
At hCB1 receptor [1], `CCCCCn1cc(C(=O)c2cccc3ccccc23)c2ccccc21` [JWH-018, naphthalen-1-yl(1-pentyl-1H-indol-3-yl)methanone, reference compound] returned an IC50 of 103 nM and an inhibition constant Ki of 2.69 nM.
Regarding `COC(=O)C(NC(=O)c1cn(CC2CCCCC2)c2ccccc12)C(C)(C)C` (stereo not drawn) [MDMB-CHMICA, Methyl 2-[[1-(cyclohexylmethyl)-1H-indole-3-carbonyl]amino]-3,3-dimethylbutanoate], the Ki was 0.41 ± 0.141 nM at hCB1 receptor [2] and 0.951 nM at hCB1 receptor [1].
